Measurements as given in patent US20070142392A1, “Uses of rifamycins” (ActivBiotics, Inc., priority 2005, published 2007).
In brackets after ≈: the same amount, converted by molar mass.

Legend:
Type in all cases: cell-based
[1] = system: S. aureus; assay: MIC values, S. aureus (Tables 1-4)
[2] = system: S. pneumo.; assay: MIC values, S. pneumo. (Tables 1-4)
[3] = system: E. faecalis; assay: MIC values, E. faecalis (Tables 1-4)
[4] = system: H. flu
[5] = system: E. coli; assay: MIC values, E. coli (Tables 1-4)

Row | Structure (SMILES) | MIC S. aureus [1] [µg/mL] | MIC S. pneumo. [2] [µg/mL] | MIC E. faecalis [3] [µg/mL] | MIC H. flu [4] [µg/mL] | MIC E. coli [5] [µg/mL]
1 | CO[C@H]1/C=C/O[C@@]2(C)Oc3c(C)c(O)c4c(=O)c(c5sc6cc(N7C[C@@H](C)N[C@@H](C)C7)ccc6nc-5c4c3C2=O)NC(=O)/C(C)=C\C=C\[C@H](C)[C@H](O)[C@@H](C)[C@@H](O)[C@@H](C)[C@H](OC(C)=O)[C@@H]1C [Compound 64] | 0.004 (≈ 0.00438 µM) | 0.00012 (≈ 0.000131 µM) | 0.12 (≈ 0.131 µM) | 0.25 (≈ 0.274 µM) | 4 (≈ 4.38 µM)
2 | CO[C@H]1/C=C/O[C@@]2(C)Oc3c(C)c(O)c4c(=O)c(c5sc6cc(N7C[C@@H](C)N[C@@H](C)C7)ccc6nc-5c4c3C2=O)NC(=O)/C(C)=C\C=C\[C@H](C)[C@H](O)[C@@H](C)[C@@H](O)[C@@H](C)[C@H](O)[C@@H]1C [Compound 65] | 0.002 (≈ 0.0023 µM) | 0.00025 (≈ 0.000287 µM) | 0.12 (≈ 0.138 µM) | 0.12 (≈ 0.138 µM) | 2 (≈ 2.3 µM)
3 | CO[C@H]1/C=C/O[C@@]2(C)Oc3c(C)c(O)c4c(=O)c(c5oc6cc(N7CCC(CCO)CC7)cc(O)c6nc-5c4c3C2=O)NC(=O)/C(C)=C\C=C\[C@H](C)[C@H](O)[C@@H](C)[C@@H](O)[C@@H](C)[C@H](O)[C@@H]1C [Compound 66] | 0.004 (≈ 0.00451 µM) | 0.0005 (≈ 0.000564 µM) | 0.12 (≈ 0.135 µM) | 0.12 (≈ 0.135 µM) | 4 (≈ 4.51 µM)
4 | CCCS(=O)(=O)NC1CCN(c2cc(O)c3nc4c5c6c7c(C)c(O)c5c(=O)c(c-4oc3c2)NC(=O)/C(C)=C\C=C\[C@H](C)[C@H](O)[C@@H](C)[C@@H](O)[C@@H](C)[C@H](O)[C@H](C)[C@@H](OC)/C=C/O[C@@](C)(O7)C6=O)CC1 [Compound 67] | 0.008 (≈ 0.00831 µM) | 0.001 (≈ 0.00104 µM) | 0.5 (≈ 0.519 µM) | 0.12 (≈ 0.125 µM) | >8
5 | COC1C=COC2(C)Oc3c(C)c(O)c4c(=O)c(c5sc6cc(N7CC(C)N(CC8CC8)CC7C)ccc6nc-5c4c3C2=O)NC(=O)C(C)=CC=CC(C)C(O)C(C)C(O)C(C)C(OC(C)=O)C1C (centres unmarked) [Compound 68] | 0.06 (≈ 0.062 µM) | 0.0005 (≈ 0.000517 µM) | 2 (≈ 2.07 µM) | 0.5 (≈ 0.517 µM) | >8
6 | CO[C@H]1/C=C/O[C@@]2(C)Oc3c(C)c(O)c4c(=O)c(c5sc6cc(N7CCC(N(C)C)CC7)ccc6nc-5c4c3C2=O)NC(=O)/C(C)=C\C=C\[C@H](C)[C@H](O)[C@@H](C)[C@@H](O)[C@@H](C)[C@H](OC(C)=O)[C@@H]1C [Compound 69] | 0.015 (≈ 0.0162 µM) | 0.00025 (≈ 0.00027 µM) | 0.5 (≈ 0.539 µM) | 0.5 (≈ 0.539 µM) | 4 (≈ 4.31 µM)
7 | COC1C=COC2(C)Oc3c(C)c(O)c4c(=O)c(c5sc6cc(N7CC(C)N(CC8CC8)CC7C)ccc6nc-5c4c3C2=O)NC(=O)C(C)=CC=CC(C)C(O)C(C)C(O)C(C)C(O)C1C (centres unmarked) [Compound 70] | 0.03 (≈ 0.0324 µM) | 0.001 (≈ 0.00108 µM) | 1 (≈ 1.08 µM) | 1 (≈ 1.08 µM) | >8
8 | CO[C@H]1/C=C/O[C@@]2(C)Oc3c(C)c(O)c4c(=O)c(c5oc6cc(N7CCC(C)(N(C)C)CC7)cc(O)c6nc-5c4c3C2=O)NC(=O)/C(C)=C\C=C\[C@H](C)[C@H](O)[C@@H](C)[C@@H](O)[C@@H](C)[C@H](OC(C)=O)[C@@H]1C [Compound 71] | 0.008 (≈ 0.0085 µM) | 0.00012 (≈ 0.000128 µM) | 0.25 (≈ 0.266 µM) | 0.5 (≈ 0.531 µM) | 4 (≈ 4.25 µM)
9 | CO[C@H]1/C=C/O[C@@]2(C)Oc3c(C)c(O)c4c(=O)c(c5oc6cc(N7CCC(C)(NC(C)=O)CC7)cc(O)c6nc-5c4c3C2=O)NC(=O)/C(C)=C\C=C\[C@H](C)[C@H](O)[C@@H](C)[C@@H](O)[C@@H](C)[C@H](OC(C)=O)[C@@H]1C [Compound 72] | 0.008 (≈ 0.00838 µM) | 0.00025 (≈ 0.000262 µM) | 2 (≈ 2.09 µM) | 0.5 (≈ 0.524 µM) | >8
10 | CO[C@H]1/C=C/O[C@@]2(C)Oc3c(C)c(O)c4c(=O)c(c5oc6cc(N7CCC(C)(N(C)C)CC7)cc(O)c6nc-5c4c3C2=O)NC(=O)/C(C)=C\C=C\[C@H](C)[C@H](O)[C@@H](C)[C@@H](O)[C@@H](C)[C@H](O)[C@@H]1C [Compound 73] | 0.002 (≈ 0.00222 µM) | 0.00025 (≈ 0.000278 µM) | 0.03 (≈ 0.0334 µM) | 0.12 (≈ 0.133 µM) | 2 (≈ 2.22 µM)
11 | CO[C@H]1/C=C/O[C@@]2(C)Oc3c(C)c(O)c4c(=O)c(c5oc6cc(N7CCC(C)(NC(C)=O)CC7)cc(O)c6nc-5c4c3C2=O)NC(=O)/C(C)=C\C=C\[C@H](C)[C@H](O)[C@@H](C)[C@@H](O)[C@@H](C)[C@H](O)[C@@H]1C [Compound 74] | 0.03 (≈ 0.0329 µM) | 0.001 (≈ 0.0011 µM) | 0.5 (≈ 0.548 µM) | 0.12 (≈ 0.131 µM) | >8
12 | CO[C@H]1/C=C/O[C@@]2(C)Oc3c(C)c(O)c4c(=O)c(c5oc6cc(N7CC[C@@H](N(C)C)C7)cc(O)c6nc-5c4c3C2=O)NC(=O)/C(C)=C\C=C\[C@H](C)[C@H](O)[C@@H](C)[C@@H](O)[C@@H](C)[C@H](OC(C)=O)[C@@H]1C [Compound 75] | 0.002 (≈ 0.00219 µM) | 0.00012 (≈ 0.000131 µM) | 0.12 (≈ 0.131 µM) | 0.25 (≈ 0.274 µM) | 4 (≈ 4.38 µM)
13 | COC1C=COC2(C)Oc3c(C)c(O)c4c(=O)c(c5sc6cc(N7CCN8CCCC8C7)ccc6nc-5c4c3C2=O)NC(=O)C(C)=CC=CC(C)C(O)C(C)C(O)C(C)C(OC(C)=O)C1C (centres unmarked) [Compound 76] | 0.008 (≈ 0.00865 µM) | 0.00025 (≈ 0.00027 µM) | 0.5 (≈ 0.54 µM) | 0.25 (≈ 0.27 µM) | 4 (≈ 4.32 µM)
14 | COC1C=COC2(C)Oc3c(C)c(O)c4c(=O)c(c5sc6cc(N7CCN8CCCC8C7)ccc6nc-5c4c3C2=O)NC(=O)C(C)=CC=CC(C)C(O)C(C)C(O)C(C)C(O)C1C (centres unmarked) [Compound 77] | 0.002 (≈ 0.00226 µM) | 0.00025 (≈ 0.000283 µM) | 0.25 (≈ 0.283 µM) | 0.12 (≈ 0.136 µM) | 2 (≈ 2.26 µM)
15 | COC1C=COC2(C)Oc3c(C)c(O)c4c(=O)c(c5oc6cc(N7CCN8CCCC8C7)cc(O)c6nc-5c4c3C2=O)NC(=O)C(C)=CC=CC(C)C(O)C(C)C(O)C(C)C(O)C1C (centres unmarked) [Compound 87] | 0.002 (≈ 0.00226 µM) | 0.00025 (≈ 0.000283 µM) | 0.03 (≈ 0.034 µM) | 0.25 (≈ 0.283 µM) | 4 (≈ 4.53 µM)
16 | COC1C=COC2(C)Oc3c(C)c(O)c4c(=O)c(c5oc6cc(N7CCN8CCCC8C7)cc(O)c6nc-5c4c3C2=O)NC(=O)C(C)=CC=CC(C)C(O)C(C)C(O)C(C)C(O)C1C (centres unmarked) [Compound 88] | 0.004 (≈ 0.00453 µM) | 0.00025 (≈ 0.000283 µM) | 0.03 (≈ 0.034 µM) | 0.25 (≈ 0.283 µM) | 8 (≈ 9.06 µM)
17 | CO[C@H]1/C=C/O[C@@]2(C)Oc3c(C)c(O)c4c(=O)c(c5oc6cc(N7CCN(Cc8ccccc8)CC7)cc(O)c6nc-5c4c3C2=O)NC(=O)/C(C)=C\C=C\[C@H](C)[C@H](O)[C@@H](C)[C@@H](O)[C@@H](C)[C@H](O)[C@@H]1C [Compound 89] | 0.03 (≈ 0.0322 µM) | 0.001 (≈ 0.00107 µM) | >8 | 8 (≈ 8.57 µM) | >8
18 | CO[C@H]1/C=C/O[C@@]2(C)Oc3c(C)c(O)c4c(=O)c(c5oc6cc(N7C[C@@H](C)N[C@@H](C)C7)cc(O)c6nc-5c4c3C2=O)NC(=O)/C(C)=C\C=C\[C@H](C)[C@H](O)[C@@H](C)[C@@H](O)[C@@H](C)[C@H](O)[C@@H]1C [Compound 90] | 0.008 (≈ 0.00918 µM) | 0.0005 (≈ 0.000574 µM) | 0.06 (≈ 0.0689 µM) | 0.25 (≈ 0.287 µM) | 4 (≈ 4.59 µM)
19 | CC[C@@H]1CN(c2cc(O)c3nc4c5c6c7c(C)c(O)c5c(=O)c(c-4oc3c2)NC(=O)/C(C)=C\C=C\[C@H](C)[C@H](O)[C@@H](C)[C@@H](O)[C@@H](C)[C@H](O)[C@H](C)[C@@H](OC)/C=C/O[C@@](C)(O7)C6=O)C[C@H](CC)N1 [Compound 91] | 0.03 (≈ 0.0334 µM) | 0.0005 (≈ 0.000556 µM) | 0.12 (≈ 0.133 µM) | 0.25 (≈ 0.278 µM) | 4 (≈ 4.45 µM)
20 | COCCN1CCN(c2cc(O)c3nc4c5c6c7c(C)c(O)c5c(=O)c(c-4oc3c2)NC(=O)/C(C)=C\C=C\[C@H](C)[C@H](O)[C@@H](C)[C@@H](O)[C@@H](C)[C@H](O)[C@H](C)[C@@H](OC)/C=C/O[C@@](C)(O7)C6=O)CC1 [Compound 92] | 0.004 (≈ 0.00444 µM) | 0.00025 (≈ 0.000277 µM) | 0.12 (≈ 0.133 µM) | 0.25 (≈ 0.277 µM) | 8 (≈ 8.88 µM)
21 | CC[C@H]1CN(c2cc(O)c3nc4c5c6c7c(C)c(O)c5c(=O)c(c-4oc3c2)NC(=O)/C(C)=C\C=C\[C@H](C)[C@H](O)[C@@H](C)[C@@H](O)[C@@H](C)[C@H](O)[C@H](C)[C@@H](OC)/C=C/O[C@@](C)(O7)C6=O)C[C@H](C)N1 [Compound 93] | 0.004 (≈ 0.00452 µM) | 0.00012 (≈ 0.000136 µM) | 0.5 (≈ 0.565 µM) | 0.25 (≈ 0.282 µM) | 4 (≈ 4.52 µM)
22 | CCOc1c(N2CCN(CC)CC2)ccc2nc3c4c5c6c(C)c(O)c4c(=O)c(c-3oc12)NC(=O)/C(C)=C\C=C\[C@H](C)[C@H](O)[C@@H](C)[C@@H](O)[C@@H](C)[C@H](O)[C@H](C)[C@@H](OC)/C=C/O[C@@](C)(O6)C5=O [Compound 94] | 0.008 (≈ 0.0089 µM) | 0.0005 (≈ 0.000556 µM) | 0.5 (≈ 0.556 µM) | 0.25 (≈ 0.278 µM) | 8 (≈ 8.9 µM)
